Reference: PMC10082216 (Nature Communications, 2023)
Where two headings read alike, the source gives them in different places.

Test: TD-6450 phase I clinical study (SAD/MAD): pharmacokinetics
Assay type: in vivo, human
Settings: human; for TD-6450 Concentration (ng/ml), Female subjects: in vivo; for TD-6450 Concentration (ng/ml), Female subjects / concentration at 1 h / concentration at 2 h / concentration at 3 h / concentration at 4 h / concentration at 6 h / concentration at 8 h / concentration at 12 h / concentration at 15 min / concentration at 24 h / concentration at 30 min / concentration at 48 h / concentration at 72 h / concentration at 96 h / concentration at 120 h / concentration at 144 h / concentration at 168 h: female; for concentration at 1 h / concentration at 2 h / concentration at 3 h / concentration at 4 h / concentration at 6 h / concentration at 8 h / concentration at 12 h / concentration at 15 min / concentration at 24 h / concentration at 30 min / concentration at 48 h / concentration at 72 h / concentration at 96 h / concentration at 120 h / concentration at 144 h / concentration at 168 h: Female subjects, read-out: Concentration
Method: Primary and secondary outcomes were pre-defined as follows: Safety and tolerability as a primary outcome, pharmacokinetics as a secondary outcome. Safety and tolerability were evaluated using standard measures, including adverse event (AE) monitoring, clinical laboratory tests (hematology, serum chemistry, coagulation, and urinalysis), vital signs, physical examinations, and 12-lead electrocardiograms (ECGs). […]
This study was conducted in two parts, Part A (SAD) and Part B (MAD). For the Part A, the age of enrolled subjects ranged from 20 to 60 years, with a mean age range of 32.1 to 46.2 years. Most subjects were male (73 total subjects) and most were white (55 subjects) or black (22 subjects). For Part B of the study, ages ranged from 23 to 60 years with a similar mean age across treatment groups. Most subjects were male (25 total subjects) and all were either white (18 subjects) or black (12 subjects). For each part of the study, the mean body mass index (BMI) and creatinine clearance were similar across treatment groups. […] Part A: Healthy subjects were sequentially enrolled and randomly assigned to each dose cohort (up to 10 dose-ascending cohorts were planned, including a fed arm in the food effect cohort) to receive either a single dose of TD-6450 or placebo. For each dose cohort, 8 subjects were randomized in a 3:1 ratio (6 subjects received TD-6450 and 2 subjects received placebo). The starting dose of TD-6450 was 0.5 mg with a planned maximum dose of 1000 mg. Upon review of the 500-mg cohort PK data, the decision was made to not escalate to the 1000-mg cohort because of exposure saturation at ≥ 500 mg. The following doses were administered: 0.5 mg, 1.5 mg, 5 mg, 15 mg, 30 mg, 60 mg, 120 mg, 240 mg, and 500 mg. Part B: Healthy subjects were sequentially enrolled in 3 ascending dose cohorts (TD-6450 60 mg, 120 mg, and 240 mg) and randomly assigned to receive either TD-6450 or placebo as once daily doses for 14 days. For each dose cohort, 10 subjects were randomized in a 4:1 ratio (8 subjects received TD-6450 and 2 subjects received placebo). Blinded safety, tolerability, and available PK data after each dose cohort were reviewed by the Safety Data Review Committee (SDRC) before escalation to the next dosing cohort for both part A and B. Subjects of the clinical study were randomly assigned to each cohort. Randomizations codes were assigned to the subjects. All study subjects, study investigators, and the sponsor’s staff involved in the conduct of the study were blinded to treatment assignment. The only personnel who had access to the randomization code before database lock were: The pharmacist or pharmacy staff member who prepared drug or placebo capsules for administration to the subject according to the randomization code and the bioanalytical contract laboratory that analyzed the PK samples (plasma and urine).

In the case of CNC(=O)N1C[C@@H](C)N(c2ccc(C(=O)Nc3ccc(-c4ccc(-c5c[nH]c([C@@H]6CCCN6C(=O)[C@@H](NC(=O)OC)C(C)C)n5)cc4)c(OC(F)(F)F)c3)cn2)C[C@@H]1C [TD-6450], the Cmax at 1 day (both sexes, plasma, oral, 120 mg, MAD 120 mg, day 1, read-out: Cmax Mean ± SD, D1) is reported as 216 ± 58 nM, the Cmax at 14 day (both sexes, plasma, oral, 120 mg, MAD 120 mg, day 14, read-out: Cmax Mean ± SD, D14) is reported as 1010 ± 349 nM and the half-life at 14 day (both sexes, plasma, oral, 120 mg, MAD 120 mg, day 14, read-out: t1/2 Mean ± SD, D14 (converted)) is reported as 66.4 ± 15 h. It also gave a Cmax (both sexes, plasma, oral, 120 mg, SAD 120 mg, read-out: Cmax Mean ± SD) of 174 ± 93.9 nM, a half-life (both sexes, plasma, oral, 120 mg, SAD 120 mg, read-out: t1/2 Mean ± SD (converted)) of 78.4 ± 13 h and a Cmax (both sexes, plasma, oral, 240 mg, MAD 240 mg, day 1, read-out: Cmax Mean ± SD, D1) of 459 ± 203 nM. For the same compound, the Cmax (both sexes, plasma, oral, 240 mg, MAD 240 mg, day 14, read-out: Cmax Mean ± SD, D14) was 1770 ± 218 nM, the half-life (both sexes, plasma, oral, 240 mg, MAD 240 mg, day 14, read-out: t1/2 Mean ± SD, D14 (converted)) was 59.8 ± 12 h and the Cmax (both sexes, plasma, oral, 240 mg, SAD 240 mg, read-out: Cmax Mean ± SD) was 278 ± 134 nM. It also gave a half-life (both sexes, plasma, oral, 240 mg, SAD 240 mg, read-out: t1/2 Mean ± SD (converted)) of 64.7 ± 7.7 h, a Cmax (both sexes, plasma, oral, 500 mg, SAD 500 mg, read-out: Cmax Mean ± SD) of 244 ± 114 nM and a half-life (both sexes, plasma, oral, 500 mg, SAD 500 mg, read-out: t1/2 Mean ± SD (converted)) of 54.9 ± 5.5 h. For the same compound, the “TD-6450 Concentration (ng/ml), Female subjects” value (“TD-6450 Concentration (ng/ml)” below) (4 h) was 48.60 ng/mL, the “TD-6450 Concentration (ng/ml)” value (6 h) was 213.00 ng/mL and the “TD-6450 Concentration (ng/ml)” value (8 h) was 215.00 ng/mL. The concentration at 1 h (plasma, oral, 0.5 mg, SAD arm NCT02022306, Dose 0.50, 1 Hour) was 0 ng/mL, the concentration at 2 h (plasma, oral, 0.5 mg, SAD arm NCT02022306, Dose 0.50, 2 Hours) was 0 ng/mL and the concentration at 3 h (plasma, oral, 0.5 mg, SAD arm NCT02022306, Dose 0.50, 3 Hours) was 0.52 ng/mL. For the same compound, the concentration at 4 h (plasma, oral, 0.5 mg, SAD arm NCT02022306, Dose 0.50, 4 Hours) was 0.48 ng/mL, the concentration at 6 h (plasma, oral, 0.5 mg, SAD arm NCT02022306, Dose 0.50, 6 Hours) was 0.67 ng/mL and the concentration at 8 h (plasma, oral, 0.5 mg, SAD arm NCT02022306, Dose 0.50, 8 Hours) was 0.31 ng/mL. The concentration at 12 h (plasma, oral, 0.5 mg, SAD arm NCT02022306, Dose 0.50, 12 Hours) was 0 ng/mL, the concentration at 15 min (plasma, oral, 0.5 mg, SAD arm NCT02022306, Dose 0.50, 15 Minutes) was 0 ng/mL and the concentration at 24 h (plasma, oral, 0.5 mg, SAD arm NCT02022306, Dose 0.50, 24 Hours) was 0 ng/mL. For the same compound, the concentration at 30 min (plasma, oral, 0.5 mg, SAD arm NCT02022306, Dose 0.50, 30 Minutes) was 0 ng/mL, the concentration at 48 h (plasma, oral, 0.5 mg, SAD arm NCT02022306, Dose 0.50, 48 Hours) was 0.26 ng/mL and the concentration at 72 h (plasma, oral, 0.5 mg, SAD arm NCT02022306, Dose 0.50, 72 Hours) was 0.28 ng/mL. It also gave a concentration at 96 h (plasma, oral, 0.5 mg, SAD arm NCT02022306, Dose 0.50, 96 Hours) of 0 ng/mL, a concentration at 120 h (plasma, oral, 0.5 mg, SAD arm NCT02022306, Dose 0.50, 120 Hours) of 0 ng/mL and a concentration at 144 h (plasma, oral, 0.5 mg, SAD arm NCT02022306, Dose 0.50, 144 Hours) of 0 ng/mL. For the same compound, the concentration at 168 h (plasma, oral, 0.5 mg, SAD arm NCT02022306, Dose 0.50, 168 Hours) was 0 ng/mL, the concentration at 1 h (plasma, oral, 5 mg, SAD arm NCT02022306, Dose 5.00, 1 Hour) was 0.91 ng/mL and the concentration at 2 h (plasma, oral, 5 mg, SAD arm NCT02022306, Dose 5.00, 2 Hours) was 2.32 ng/mL. It also gave a concentration at 3 h (plasma, oral, 5 mg, SAD arm NCT02022306, Dose 5.00, 3 Hours) of 3.81 ng/mL, a concentration at 4 h (plasma, oral, 5 mg, SAD arm NCT02022306, Dose 5.00, 4 Hours) of 4.11 ng/mL and a concentration at 6 h (plasma, oral, 5 mg, SAD arm NCT02022306, Dose 5.00, 6 Hours) of 4.27 ng/mL. The concentration at 8 h (plasma, oral, 5 mg, SAD arm NCT02022306, Dose 5.00, 8 Hours) was 3.7 ng/mL, the concentration at 12 h (plasma, oral, 5 mg, SAD arm NCT02022306, Dose 5.00, 12 Hours) was 3.01 ng/mL and the concentration at 15 min (plasma, oral, 5 mg, SAD arm NCT02022306, Dose 5.00, 15 Minutes) was 0 ng/mL. For the same compound, the concentration at 24 h (plasma, oral, 5 mg, SAD arm NCT02022306, Dose 5.00, 24 Hours) was 2.55 ng/mL, the concentration at 30 min (plasma, oral, 5 mg, SAD arm NCT02022306, Dose 5.00, 30 Minutes) was 0 ng/mL and the concentration at 48 h (plasma, oral, 5 mg, SAD arm NCT02022306, Dose 5.00, 48 Hours) was 2.13 ng/mL. It also gave a concentration at 72 h (plasma, oral, 5 mg, SAD arm NCT02022306, Dose 5.00, 72 Hours) of 1.75 ng/mL, a concentration at 96 h (plasma, oral, 5 mg, SAD arm NCT02022306, Dose 5.00, 96 Hours) of 1.15 ng/mL and a concentration at 144 h (plasma, oral, 5 mg, SAD arm NCT02022306, Dose 5.00, 144 Hours) of 0.77 ng/mL. For the same compound, the concentration at 168 h (plasma, oral, 5 mg, SAD arm NCT02022306, Dose 5.00, 168 Hours) was 0.61 ng/mL, the concentration at 1 h (plasma, oral, 15 mg, SAD arm NCT02022306, Dose 15.00, 1 Hour) was 1.46 ng/mL and the concentration at 2 h (plasma, oral, 15 mg, SAD arm NCT02022306, Dose 15.00, 2 Hours) was 10.1 ng/mL. It also gave a concentration at 3 h (plasma, oral, 15 mg, SAD arm NCT02022306, Dose 15.00, 3 Hours) of 13.9 ng/mL, a concentration at 4 h (plasma, oral, 15 mg, SAD arm NCT02022306, Dose 15.00, 4 Hours) of 18 ng/mL and a concentration at 6 h (plasma, oral, 15 mg, SAD arm NCT02022306, Dose 15.00, 6 Hours) of 18.1 ng/mL. It also gave a concentration at 8 h (plasma, oral, 15 mg, SAD arm NCT02022306, Dose 15.00, 8 Hours) of 15.1 ng/mL, a concentration at 12 h (plasma, oral, 15 mg, SAD arm NCT02022306, Dose 15.00, 12 Hours) of 10.7 ng/mL and a concentration at 15 min (plasma, oral, 15 mg, SAD arm NCT02022306, Dose 15.00, 15 Minutes) of 0 ng/mL. For the same compound, the concentration at 24 h (plasma, oral, 15 mg, SAD arm NCT02022306, Dose 15.00, 24 Hours) was 9.09 ng/mL, the concentration at 30 min (plasma, oral, 15 mg, SAD arm NCT02022306, Dose 15.00, 30 Minutes) was 0 ng/mL and the concentration at 48 h (plasma, oral, 15 mg, SAD arm NCT02022306, Dose 15.00, 48 Hours) was 6.98 ng/mL. The concentration at 72 h (plasma, oral, 15 mg, SAD arm NCT02022306, Dose 15.00, 72 Hours) was 5.88 ng/mL, the concentration at 96 h (plasma, oral, 15 mg, SAD arm NCT02022306, Dose 15.00, 96 Hours) was 5.19 ng/mL and the concentration at 120 h (plasma, oral, 15 mg, SAD arm NCT02022306, Dose 15.00, 120 Hours) was 4.42 ng/mL.
